Legend:
Type in all cases: biochemical
[1] = molecular target: human JAK1 (a.a. 837-1142); experiment: In vitro JAK kinase assay (HTRF, phosphorylation of a biotinylated peptide), JAK1; settings: ratio of JAK2 IC50 to JAK1 IC50, measured at 1 mM ATP
Experimental: (§1) Compounds herein were tested for inhibitory activity of JAK targets according to the following in vitro assay described in Park et al., Analytical Biochemistry 1999, 269, 94-104. The catalytic domains of human JAK1 (a.a. 837-1142), Jak2 (a.a. 828-1132) and Jak3 (a.a. 781-1124) with an N-terminal His tag were expressed using baculovirus in insect cells and purified. The catalytic activity of JAK1, JAK2 or JAK3 was assayed by measuring the phosphorylation of a biotinylated peptide. The phosphorylated peptide was detected by homogenous time resolved fluorescence (HTRF). […] Reactions were carried out at room temperature for 1 hr and then stopped with 20 μL 45 mM EDTA, 300 nM SA-APC, 6 nM Eu-Py20 in assay buffer (Perkin Elmer, Boston, Mass.). Binding to the Europium labeled antibody took place for 40 minutes and HTRF signal was measured on a Fusion plate reader (Perkin Elmer, Boston, Mass.).

[2] = molecular target: human JAK1 (a.a. 837-1142) (Homo sapiens, UniProt P23458); experiment: as above; settings: measured at 1 mM ATP
Experimental: as §1

Jak2 (a.a. 828-1132) = Jak2 (a.a. 828-1132) (Homo sapiens (Human), UniProt O60674); experiment: In vitro JAK kinase assay (HTRF, phosphorylation of a biotinylated peptide), JAK2; settings: measured at 1 mM ATP
Experimental: as §1

Jak2 (a.a. 828-1132), sequence (O60674 828-1132): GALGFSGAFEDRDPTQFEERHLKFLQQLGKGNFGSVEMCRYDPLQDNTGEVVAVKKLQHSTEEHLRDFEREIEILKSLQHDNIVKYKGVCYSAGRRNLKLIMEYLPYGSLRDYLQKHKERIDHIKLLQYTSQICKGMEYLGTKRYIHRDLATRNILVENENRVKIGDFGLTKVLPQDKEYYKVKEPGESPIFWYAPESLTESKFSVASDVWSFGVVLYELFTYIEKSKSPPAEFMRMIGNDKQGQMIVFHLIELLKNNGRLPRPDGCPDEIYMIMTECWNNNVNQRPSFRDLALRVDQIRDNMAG

SMILES	IC50 Ratio JAK2/JAK1 [1]	IC50 [2]	IC50 (Jak2 (a.a. 828-1132))
N#CCC1(n2cc(-c3ncnc4[nH]ccc34)cn2)CN(C2CCN(C(=O)c3ncco3)CC2)C1 [Example 16, {1-[1-(1,3-oxazol-2-ylcarbonyl)piperidin-4-yl]-3-[4-(7H-pyrrolo[2,3-d]pyrimidin-4-yl)-1H-pyrazol-1-yl]azetidin-3-yl}acetonitrile]	2.5	5 to 20 nM	10 to 50 nM
N#CCC1(n2cc(-c3ccnc4[nH]ccc34)cn2)CN(C2CCN(C(=O)c3nc(C(F)(F)F)cs3)CC2)C1 [Example 350]	15.0	5 to 20 nM	> 100 nM
N#CCC1(n2cc(-c3ncnc4[nH]ccc34)cn2)CN(C2CCN(Cc3c(Cl)cncc3Cl)CC2)C1 [Example 237, {1-{1-[(3,5-dichloropyridin-4-yl)methyl]piperidin-4-yl}-3-[4-(7H-pyrrolo[2,3-d]pyrimidin-4-yl)-1H-pyrazol-1-yl]azetidin-3-yl}acetonitrile]	2.3	5 to 20 nM	10 to 50 nM
N#CCC1(n2cc(-c3c(C#N)cnc4[nH]ccc34)cn2)CN(C2CCN(C(=O)c3ccc(C#N)c(F)c3)CC2)C1 [Example 334, 4-{1-[1-[1-(4-cyano-3-fluorobenzoyl)piperidin-4-yl]-3-(cyanomethyl)azetidin-3-yl]-1H-pyrazol-4-yl}-1H-pyrrolo[2,3-b]pyridine-5-carbonitrile]	4.3	20 to 30 nM	> 100 nM
N#CCC1(n2ccc(-c3ncnc4[nH]ccc34)c2)CN(C2CCN(C(=O)Nc3ncccc3C(F)(F)F)CC2)C1 [Example 290, 4-{3-(cyanomethyl)-3-[3-(7H-pyrrolo[2,3-d]pyrimidin-4-yl)-1H-pyrrol-1-yl]azetidin-1-yl}-N-[3-(trifluoromethyl)pyridin-2-yl]piperidine-1-carboxamide]	3.9	20 to 30 nM	> 100 nM
N#CCC1(n2cc(-c3c(C#N)cnc4[nH]ccc34)cn2)CN(C2CCN(C(=O)c3cc(F)cc(C#N)c3)CC2)C1 [Example 333, 4-{1-[1-[1-(3-cyano-5-fluorobenzoyl)piperidin-4-yl]-3-(cyanomethyl)azetidin-3-yl]-1H-pyrazol-4-yl}-1H-pyrrolo[2,3-b]pyridine-5-carbonitrile]	8.8	5 to 20 nM	50 to 100 nM
N#CCC1(n2cc(-c3ncnc4[nH]ccc34)cn2)CN(C2CCN(C(=O)Nc3cc(F)cc(F)c3F)CC2)C1 [Example 173, 4-{3-(cyanomethyl)-3-[4-(7H-pyrrolo[2,3-d]pyrimidin-4-yl)-1H-pyrazol-1-yl]azetidin-1-yl}-N-(2,3,5-trifluorophenyl)piperidine-1-carboxamide]	5.7	5 to 20 nM	10 to 50 nM
CC1CC(N2CC(CC#N)(n3cc(-c4ncnc5[nH]ccc45)cn3)C2)CCN1Cc1ccc(N(C)C)c(C#N)c1F (single isomer, unassigned) [Example 243, 3-[(4-{3-(cyanomethyl)-3-[4-(7H-pyrrolo[2,3-d]pyrimidin-4-yl)-1H-pyrazol-1-yl]azetidin-1-yl}-2-methylpiperidin-1-yl)methyl]-6-(dimethylamino)-2-fluorobenzonitrile]	6.4		
CC1CC(N2CC(CC#N)(n3cc(-c4ncnc5[nH]ccc45)cn3)C2)CCN1Cc1c(F)cccc1Cl (stereo not shown) [Example 244, {1-[1-(2-chloro-6-fluorobenzyl)-2-methylpiperidin-4-yl]-3-[4-(7H-pyrrolo[2,3-d]pyrimidin-4-yl)-1H-pyrazol-1-yl]azetidin-3-yl}acetonitrile]	1.8		
N#CCC1(n2cc(-c3ncnc4[nH]ccc34)cn2)CN(C2CCN(C(=O)c3ccc(-c4cccc5cccnc45)c(F)c3)CC2)C1 [Example 132, {1-[1-(3-fluoro-4-quinolin-8-ylbenzoyl)piperidin-4-yl]-3-[4-(7H-pyrrolo[2,3-d]pyrimidin-4-yl)-1H-pyrazol-1-yl]azetidin-3-yl}acetonitrile]	5.8		≤ 10 nM
CC1CC(N2CC(CC#N)(n3cc(-c4ncnc5[nH]ccc45)cn3)C2)CCN1Cc1ccc(N(C)C)c(C#N)c1F (single isomer, unassigned) [Example 242, 3-[(4-{3-(cyanomethyl)-3-[4-(7H-pyrrolo[2,3-d]pyrimidin-4-yl)-1H-pyrazol-1-yl]azetidin-1-yl}-2-methylpiperidin-1-yl)methyl]-6-(dimethylamino)-2-fluorobenzonitrile]	8.3		
CC1CC(N2CC(CC#N)(n3cc(-c4ncnc5[nH]ccc45)cn3)C2)CCN1Cc1c(F)cccc1Cl (stereo not shown) [Example 245, {1-[1-(2-chloro-6-fluorobenzyl)-2-methylpiperidin-4-yl]-3-[4-(7H-pyrrolo[2,3-d]pyrimidin-4-yl)-1H-pyrazol-1-yl]azetidin-3-yl}acetonitrile]	1.5		

The next lines start with the values.

IC50 Ratio JAK2/JAK1 [1]	IC50 [2]	IC50 (Jak2 (a.a. 828-1132))	SMILES
1.7	≤ 5 nM	≤ 10 nM	N#CCC1(n2cc(-c3ncnc4[nH]ccc34)cn2)CN(C2CCN(C(=O)c3sc4cc(F)ccc4c3Cl)CC2)C1 [Example 91, {1-{1-[(3-chloro-6-fluoro-1-benzothien-2-yl)carbonyl]piperidin-4-yl}-3-[4-(7H-pyrrolo[2,3-d]pyrimidin-4-yl)-1H-pyrazol-1-yl]azetidin-3-yl}acetonitrile]
3.8	5 to 20 nM	50 to 100 nM	N#CCC1(n2cc(-c3ncnc4[nH]ccc34)cn2)CN(C2CCN(C(=O)Nc3ccsc3)CC2)C1 [Example 179, 4-{3-(cyanomethyl)-3-[4-(7H-pyrrolo[2,3-d]pyrimidin-4-yl)-1H-pyrazol-1-yl]azetidin-1-yl}-N-3-thienylpiperidine-1-carboxamide]
8.5	≤ 5 nM	≤ 10 nM	N#CCC1(n2cc(-c3ncnc4[nH]ccc34)cn2)CN(C2CCN(C(=O)Nc3cccc(Cl)c3F)CC2)C1 [Example 177, N-(3-chloro-2-fluorophenyl)-4-{3-(cyanomethyl)-3-[4-(7H-pyrrolo[2,3-d]pyrimidin-4-yl)-1H-pyrazol-1-yl]azetidin-1-yl}piperidine-1-carboxamide]
6.7	≤ 5 nM	≤ 10 nM	N#CCC1(n2cc(-c3ncnc4[nH]ccc34)cn2)CN(C2CCN(C(=O)c3ccc(F)cc3F)CC2)C1 [Example 42, {1-[1-(2,4-difluorobenzoyl)piperidin-4-yl]-3-[4-(7H-pyrrolo[2,3-d]pyrimidin-4-yl)-1H-pyrazol-1-yl]azetidin-3-yl}acetonitrile]
12.0	≤ 5 nM	10 to 50 nM	COc1ccc(C(=O)N2CCC(N3CC(CC#N)(n4cc(-c5ncnc6[nH]ccc56)cn4)C3)CC2)cc1F [Example 5, {1-[1-(3-fluoro-4-methoxybenzoyl)piperidin-4-yl]-3-[4-(7H-pyrrolo[2,3-d]pyrimidin-4-yl)-1H-pyrazol-1-yl]azetidin-3-yl}acetonitrile]
4.4	5 to 20 nM	10 to 50 nM	Cc1nc(C(F)(F)F)ccc1NC(=O)N1CCC(N2CC(CC#N)(n3cc(-c4ncnc5[nH]ccc45)cn3)C2)CC1 [Example 205, 4-{3-(cyanomethyl)-3-[4-(7H-pyrrolo[2,3-d]pyrimidin-4-yl)-1H-pyrazol-1-yl]azetidin-1-yl}-N-[2-methyl-6-(trifluoromethyl)pyridin-3-yl]piperidine-1-carboxamide]
4.2	≤ 5 nM	≤ 10 nM	COc1ccsc1C(=O)N1CCC(N2CC(CC#N)(n3cc(-c4ncnc5[nH]ccc45)cn3)C2)CC1 [Example 81, {1-{1-[(3-methoxy-2-thienyl)carbonyl]piperidin-4-yl}-3-[4-(7H-pyrrolo[2,3-d]pyrimidin-4-yl)-1H-pyrazol-1-yl]azetidin-3-yl}acetonitrile]
9.7	≤ 5 nM	10 to 50 nM	N#CCC1(n2cc(-c3ncnc4[nH]ccc34)cn2)CN(C2CCN(C(=O)OCC3CCC3)CC2)C1 [Example 387, Cyclobutylmethyl 4-{3-(cyanomethyl)-3-[4-(7H-pyrrolo[2,3-d]pyrimidin-4-yl)-1H-pyrazol-1-yl]azetidin-1-yl}piperidine-1-carboxylate]
4.8	≤ 5 nM	≤ 10 nM	COc1cc(F)ccc1C(=O)N1CCC(N2CC(CC#N)(n3cc(-c4ncnc5[nH]ccc45)cn3)C2)CC1 [Example 40, {1-[1-(4-fluoro-2-methoxybenzoyl)piperidin-4-yl]-3-[4-(7H-pyrrolo[2,3-d]pyrimidin-4-yl)-1H-pyrazol-1-yl]azetidin-3-yl}acetonitrile]
7.0	≤ 5 nM		CC1CC(N2CC(CC#N)(n3cc(-c4ncnc5[nH]ccc45)cn3)C2)CCN1C(=O)c1cccc(F)c1 (single isomer, unassigned) [Example 150, {1-[1-(3-fluorobenzoyl)-2-methylpiperidin-4-yl]-3-[4-(7H-pyrrolo[2,3-d]pyrimidin-4-yl)-1H-pyrazol-1-yl]azetidin-3-yl}acetonitrile]
5.0	≤ 5 nM		CC1CC(N2CC(CC#N)(n3cc(-c4ncnc5[nH]ccc45)cn3)C2)CCN1C(=O)c1cccc(F)c1 (single isomer, unassigned) [Example 149, {1-[1-(3-fluorobenzoyl)-2-methylpiperidin-4-yl]-3-[4-(7H-pyrrolo[2,3-d]pyrimidin-4-yl)-1H-pyrazol-1-yl]azetidin-3-yl}acetonitrile]

From patent US9999619B2, “Piperidin-4-yl azetidine derivatives as JAK1 inhibitors” (Incyte Corporation, priority 2010, dated 2018)
